According to patent publication EP0426075A1, “Benzylpyrrolidine derivatives as dopamine agonists” (SYNTEX (U.S.A.) INC., priority 1989, dated 1991):

Columns and labels:
DA1 receptor = experiment: Goldberg in situ renal arterial preparation (renal DA1 assay), intra-arterial injection; format: in vivo, dog; details: for Relative Efficacy to DA1 Standard: optimal response of test compound divided by optimal response of dopamine; for ED50: renal blood flow increase, i.a. bolus into renal artery, anesthetized dog; for Relative Potency to DA1 Standard: standard (dopamine) ED50 divided by test compound ED50
Protocol: The compounds were subsequently tested following intra-arterial administration in an in situ renal and femoral arterial preparation in the dog, as developed by L.I. Goldberg, to test for DA1 and DA2 dopamine activity, respectively. Details of the methodology are provided in the European J. Pharmacol. 89 :137, 1983, as well as in Hypertension 6 :1-25, 1984.
The compounds of this invention were tested following intra-arterial administration in an in situ renal and femoral arterial preparation in the dog, as developed by L.I. Goldberg, to test for DA1 and DA2 dopamine activity, respectively. Details of the methodology are provided in the European J. Pharmacol. , 89 :137, 1983, as well as in Hypertension , 6 :1-25, 1984. J. L. McNay, L. I. Goldberg JPET 151 :23-31, 1966.
The compounds were injected directly into the renal or femoral artery for analysis of DA, or DA2 activity, respectively. […] The compounds were tested for relative activity in comparison to the standard DA, agonist, dopamine or the standard DA2 agonist, DPDA. Specific DA, or DA2 activity of the tested compound was verified by Sch 23390 or domperidone blockade.
Adult mongrel dogs of either sex (12-20 kg) were anesthetized with pentobarbital sodium (33 mg/kg, i.v.). The animals were intubated and ventilated with room air using a Harvard respirator.
The compounds of this invention were tested following intra-arterial administration in an in situ renal and femoral arterial preparation in the dog, as developed by L.I. Goldberg, to test for DA1 and DA2 dopamine activity, respectively. Details of the methodology are provided in the European J. Pharmacol. , 89 :137, 1983, as well as in Hypertension , 6 :1-25, 1984. J. L. McNay, L. I. Goldberg JPET 151 :23-31, 1966
The compounds were injected directly into the renal or femoral artery for analysis of DA1 or DA2 activity, respectively. […] The compounds were tested for relative activity in comparison to the standard DA1 agonist, dopamine or the standard DA2 agonist, DPDA. Specific DA, or DA2 activity of the tested compound was verified by Sch 23390 or domperidone blockade.
The abdominal aorta was catheterized with a Millar micro-tip (size: 5F) transducer via the right femoral artery for blood pressure monitoring. The right femoral vein was cannulated with PE-160 tubing for iv saline infusion, as well as supplemental pentobarbital administration. The left renal artery was isolated through a lateral abdominal incision. An electromagnetic flowprobe of the appropriate size (8-11 mm circ.) was placed around the artery and connected to a Carolina Medical electromagnetic flowmeter. Surface ECG leads were placed subcutaneously on the chest and limbs to monitor heart rate. A 25 gauge 3/4" needle bent 90°, 4 mm from the tip, was placed in the renal artery proximal to the probe and connected to an infusion pump delivering saline at a constant rate of 1 ml/min. Following a saline and 1µg norepinephrine (NE) challenge, both given in an injection volume of 0.2 ml, the animal was treated with a phenoxybenzamine, 0.5 mg/kg/min i.a., infusion for a duration of 10-20 minutes as necessary to achieve a complete blockade of the NE challenge. Blood pressure was maintained by supplemental saline infusion (10-20 ml/kg, iv). Bradykinin, a standard for nonspecific vasodilation, was given at 0.60 nmole doses, in 0.2 ml saline, i.a., prior to generating a dose response curve for dopamine in which 4-fold increasing doses, ranging from 3 to 48 nmoles, were injected i.a. in 0.2 ml of saline (i.a. bolus). Test compounds were injected similarly in 4-fold increasing doses up to a maximum of 3000 nmoles. Compounds were then repeated at their optimal dose following Sch 23390 pretreatment (0.05 - 0.10 mg/kg, iv).
Efficacy ratios were determined by division of the optimal response of the test compound by the optimal response of the standard agent.

[1] = tested on: saline-loaded spontaneously hypertensive rat (SHR); experiment: Spontaneous Hypertensive Rat - diuretic activity, saline-loaded, oral; format: in vivo; details: for Urine K^+ (mEq/sample) / Urine Na^+ (mEq/sample) / Urine Volume: n = 7, mean ± S.D.
Protocol: Additionally, these compounds were examined for diuretic activity for 6 hours following oral compound administration in the saline-loaded spontaneously hypertensive rat (SHR). Methods for this assay have been previously described (Rosenkranz, et al, Proc. West. Pharmacol. Soc. 28 :87, 1985). The diuretic and natriuretic effects elicited by these compounds were characterized by an immediate onset of action.
The compounds of this invention were examined for diuretic activity for 6 hours following oral compound administration in the saline-loaded spontaneously hypertensive rat (SHR). Methods for this assay have been previously described (Rosenkranz, et al, Proc. West. Pharmacol. Soc. 28 :87, 1985). The diuretic and natriuretic effects elicited by these compounds were characterized by an immediate onset of action.
Male spontaneously hypertensive SHR/NCrIBR rats weighing 320-430 gms were divided into four groups of seven animals. All animals were food- and water-deprived overnight. The following morning, each group of rats was hydrated with deionized water (20 ml/kg, po) forty-five minutes prior to the administration of vehicle or the test compounds.
Following vehicle or drug, the rats were placed in individual metabolic units. Fifteen minutes post-dose the animals were saline-loaded (30 ml/kg, po). Urine was collected at 1, 3 and 6 hour intervals post-saline- load. Urine volumes were measured and sodium and potassium levels were determined by flame photometry.
A two-way analysis of variance with time, treatment and their interaction was run as a repeated measures analysis. A secondary model of one-way analysis of variance (by time) was run using specified contrasts. The p-values for the contrasts were adjusted using Fisher's LSD strategy at each time point.

[2] = po 3 mg/kg, cumulative time 1 hr
[3] = po 3 mg/kg, cumulative time 3 hr
[4] = po 3 mg/kg, cumulative time 6 hr
[5] = po 10 mg/kg, cumulative time 1 hr
[6] = po 10 mg/kg, cumulative time 3 hr
[7] = po 10 mg/kg, cumulative time 6 hr
[8] = po 30 mg/kg, cumulative time 1 hr
[9] = po 30 mg/kg, cumulative time 3 hr
[10] = po 30 mg/kg, cumulative time 6 hr

Row | SMILES | Relative Efficacy to DA1 Standard (DA1 receptor) | ED50 (DA1 receptor) | Relative Potency to DA1 Standard (DA1 receptor) | Urine K^+ (mEq/sample) [1, 2] | Urine Na^+ (mEq/sample) [1, 2] | Urine Volume [1, 2] | Urine K^+ (mEq/sample) [1, 3] | Urine Na^+ (mEq/sample) [1, 3] | Urine Volume [1, 3] | Urine K^+ (mEq/sample) [1, 4] | Urine Na^+ (mEq/sample) [1, 4] | Urine Volume [1, 4] | Urine K^+ (mEq/sample) [1, 5] | Urine Na^+ (mEq/sample) [1, 5] | Urine Volume [1, 5] | Urine K^+ (mEq/sample) [1, 6] | Urine Na^+ (mEq/sample) [1, 6] | Urine Volume [1, 6] | Urine K^+ (mEq/sample) [1, 7] | Urine Na^+ (mEq/sample) [1, 7] | other results
1 | Br.Br.CCCN(CCCCCCN1CCC[C@@H]1Cc1ccc(O)c(O)c1)CCc1ccc(O)cc1 [Test Compound 1, (R)-2-(3,4-dihydroxybenzyl)-1-[6-(N-(4-hydroxyphenethyl)-N-propylamino)hexyl]pyrrolidine dihydrobromide] | 1.10 | 0.87 nmol | 6.44 | 0.03±0.04 mEq/sample | 0.02±0.02 mEq/sample | 4.6 ± 1.9 mL | 0.11±0.05 mEq/sample | 0.07±0.03 mEq/sample | 7.8 ± 1.4 mL | 0.20±0.07 mEq/sample | 0.25±0.10 mEq/sample | 9.4 ± 1.8 mL | 0.06±0.03 mEq/sample | 0.28±0.13 mEq/sample | 9.9 ± 3.6 mL | 0.16±0.08 mEq/sample | 0.51±0.22 mEq/sample | 11.4 ± 3.9 mL | 0.22±0.11 mEq/sample | 0.51±0.27 mEq/sample | kaliuresis ([1]; 30 mg/kg, po, 1, 3, and 6 hour post-dose time points): significant kaliuresis; Urine Volume [1, 7]: 11.8 ± 3.9 mL; Urine K^+ (mEq/sample) [1, 8]: 0.07±0.02 mEq/sample; Urine Na^+ (mEq/sample) [1, 8]: 0.61±0.16 mEq/sample; Urine Volume [1, 8]: 14.7 ± 2.3 mL; Urine K^+ (mEq/sample) [1, 9]: 0.24±0.05 mEq/sample; Urine Na^+ (mEq/sample) [1, 9]: 1.13±0.25 mEq/sample; Urine Volume [1, 9]: 18.6 ± 2.8 mL; Urine K^+ (mEq/sample) [1, 10]: 0.31±0.06 mEq/sample; Urine Na^+ (mEq/sample) [1, 10]: 1.31±0.27 mEq/sample; Urine Volume [1, 10]: 19.3 ± 2.7 mL
2 | Br.Br.CCCN(CCCCCCN1CCC[C@@H]1Cc1ccc(O)c(O)c1)CCc1cccc(O)c1 [Test Compound 2, (R)-2-(3,4-dihydroxybenzyl)-1-[6-(N-(3-hydroxyphenethyl)-N-propylamino)hexyl]pyrrolidine dihydrobromide] | 0.93 | 0.34 nmol | 17.47 | 0.02±0.01 mEq/sample | 0.00±0.00 mEq/sample | 5.2 ± 1.4 mL | 0.09±0.04 mEq/sample | 0.06±0.04 mEq/sample | 7.9 ± 0.7 mL | 0.17±0.05 mEq/sample | 0.19±0.07 mEq/sample | 9.1 ± 0.8 mL | 0.02±0.01 mEq/sample | 0.09±0.05 mEq/sample | 8.9 ± 1.6 mL | 0.10±0.06 mEq/sample | 0.26±0.12 mEq/sample | 11.2 ± 2.0 mL | 0.13±0.09 mEq/sample | 0.31±0.17 mEq/sample | Urine Volume [1, 7]: 11.7 ± 2.4 mL; Urine K^+ (mEq/sample) [1, 8]: 0.03±0.02 mEq/sample; Urine Na^+ (mEq/sample) [1, 8]: 0.16±0.05 mEq/sample; Urine Volume [1, 8]: 13.0 ± 2.2 mL; Urine K^+ (mEq/sample) [1, 9]: 0.13±0.07 mEq/sample; Urine Na^+ (mEq/sample) [1, 9]: 0.40±0.12 mEq/sample; Urine Volume [1, 9]: 15.7 ± 2.1 mL; Urine K^+ (mEq/sample) [1, 10]: 0.17±0.09 mEq/sample; Urine Na^+ (mEq/sample) [1, 10]: 1.45±0.12 mEq/sample; Urine Volume [1, 10]: 15.9 ± 2.1 mL
